Laboratory results taken from ChEMBL document CHEMBL5537210, “Probing Isosteric Replacement for Immunoadjuvant Design: Bis-Aryl Triazole Trehalolipids are Mincle Agonists” (ACS Med Chem Lett, 2024).
Activity calls are given as the source filed them. No cut-off for these calls is given here.

What was measured:
Type in all cases: functional, cell-based
Conditions in all cases: dose 0.1-1 nmol
2B4 = assay: Induction of NFAT-GFP signal in mouse 2B4 reporter cells expressing mMincle + FcRgamma at 0.1 to 1 nmol incubated for 18 hrs by flow cytometry analysis
BMDM [1] = assay: Induction of cytokine production in wild type C57BL/6 mouse BMDM cells assessed as IL-6 secretion at 0.1 to 1 nmol incubated for 24 hrs by ELISA method
BMDM [2] = assay: Induction of cytokine production in wild type C57BL/6 mouse BMDM cells assessed as IL-10 secretion at 0.1 to 1 nmol incubated for 24 hrs by ELISA method
BMDM [3] = assay: Induction of cytokine production in wild type C57BL/6 mouse BMDM cells assessed as IL-1beta secretion at 0.1 to 1 nmol incubated for 24 hrs by ELISA method

CCCCCCCCOc1ccc(-c2cn(C[C@H]3O[C@H](O[C@H]4O[C@H](Cn5cc(-c6ccc(OCCCCCCCC)cc6)nn5)[C@@H](O)[C@H](O)[C@H]4O)[C@H](O)[C@@H](O)[C@@H]3O)nn2)cc1
Activity (2B4): Active

CCCCCCCCOc1cccc(-c2cn(C[C@H]3O[C@H](O[C@H]4O[C@H](Cn5cc(-c6cccc(OCCCCCCCC)c6OCCCCCCCC)nn5)[C@@H](O)[C@H](O)[C@H]4O)[C@H](O)[C@@H](O)[C@@H]3O)nn2)c1OCCCCCCCC
Activity (2B4): Active | Activity (BMDM [1]): Active | Activity (BMDM [2]): Active | Activity (BMDM [3]): Active

CCCCCCCCOc1ccc(-c2cn(C[C@H]3O[C@H](O[C@H]4O[C@H](Cn5cc(-c6ccc(OCCCCCCCC)cc6OCCCCCCCC)nn5)[C@@H](O)[C@H](O)[C@H]4O)[C@H](O)[C@@H](O)[C@@H]3O)nn2)c(OCCCCCCCC)c1
Activity (2B4): Active | Activity (BMDM [1]): Active | Activity (BMDM [2]): Active | Activity (BMDM [3]): Active

CCCCCCCCOc1ccccc1-c1cn(C[C@H]2O[C@H](O[C@H]3O[C@H](Cn4cc(-c5ccccc5OCCCCCCCC)nn4)[C@@H](O)[C@H](O)[C@H]3O)[C@H](O)[C@@H](O)[C@@H]2O)nn1
Activity (2B4): Active

CCCCCCCCOc1ccc(-c2cn(C[C@H]3O[C@H](O[C@H]4O[C@H](Cn5cc(-c6ccc(OCCCCCCCC)c(OCCCCCCCC)c6)nn5)[C@@H](O)[C@H](O)[C@H]4O)[C@H](O)[C@@H](O)[C@@H]3O)nn2)cc1OCCCCCCCC
Activity (2B4): Active | Activity (BMDM [1]): inactive | Activity (BMDM [2]): inactive | Activity (BMDM [3]): inactive

O[C@@H]1[C@@H](O)[C@@H](O[C@H]2O[C@H](Cn3cc(-c4ccccc4)nn3)[C@@H](O)[C@H](O)[C@H]2O)O[C@H](Cn2cc(-c3ccccc3)nn2)[C@H]1O
Activity (2B4): inactive

CCCCCCCCOc1cc(OCCCCCCCC)cc(-c2cn(C[C@H]3O[C@H](O[C@H]4O[C@H](Cn5cc(-c6cc(OCCCCCCCC)cc(OCCCCCCCC)c6)nn5)[C@@H](O)[C@H](O)[C@H]4O)[C@H](O)[C@@H](O)[C@@H]3O)nn2)c1
Activity (2B4): Active | Activity (BMDM [1]): Active | Activity (BMDM [2]): Active | Activity (BMDM [3]): inactive
